Positions of bridges follow the written chain, without caps; N, C: chain ends.
Columns and labels:
[1] = test system: MDA-MB-231 breast cancer cells stably expressing VIPR2-EGFP; assay: Transwell migration test with KS-133; type: cell-based
Description: (§1) In addition, the measurement was performed according to the method described above (Asano et al. 2012, Mol. Cell Biol. 32, 3242-3252) using a Boyden chamber. To each well, 600 μL of a serum-free culture solution containing 200 nM VIP was added. Cells (1×10^4 cells) were suspended in 100 μL of a serum-free culture solution and added to the insert. The cells were allowed to migrate for 30 or 48 hours at 37° C. Non-mobile cells adhering to the upper surface of the membrane were removed, and mobile cells adhering to the lower surface were fixed with 4% paraformaldehyde and counted with a fluorescence microscope.
Using the transwell shown in FIG. 7, the effect of KS-133 on migration of MDA-MB-231 breast cancer cells stably expressing VIPR2-EGFP was examined. MDA-MB-231 cells stably expressing VIPR2-EGFP were suspended in serum-free medium containing KS-133 at each of the concentrations of 0 nM to 1000 nM (1×10^4 cells/100 μL). A serum-free medium 6 containing 200 nM VIP and KS-133 at each of the concentrations was added to each well in an amount of 600 μL, and an insert 3 having 3 μm pores 5 was immersed in the well. Then, the suspended cells 1 were added to the insert 3, and incubated under conditions of 37° C. and 5% CO2. After 48 hours, the cells were fixed, cells on the surface of the insert 3 were removed, and then fluorescence of EGFP of cells 2 that had moved to the rear surface in response to induction by VIP was detected with a fluorescence microscope. The number of the cells that had moved to the rear surface of the insert was graphed based on the fluorescence image.
FIG. 8A is a fluorescence micrograph showing migrated cells. FIG. 8B and Table 2 show the number of migrated cells when each concentration of KS-133 was added.

[2] = test system: psychiatric disease model mice; conditions: NON-PATENT DOCUMENT 2; cited from earlier work
[3] = test system: phosphorylation of AKT in MDA-MB-231 cells stably expressing VIPR2-EGFP; assay: Phosphorylation of AKT by VIP in the presence and absence of KS-133 (Western blotting); type: cell-based
Description: (§2) Western blotting was performed according to a previously described method (Asano et al. 2014, Biol. Open3, 463-474; Asano et al. 2019, Sci. Rep. 9, 12729).
Pathway by VIP in MDA-MB-231 Cells Stably Expressing VIPR2-EGFP>Phosphorylation of AKT by VIP in MDA-MB-231 cells stably expressing VIPR2-EGFP was evaluated in the presence and absence of KS-133.

[4] = test system: MCF-7 cells overexpressing VIPR2-EGFP; assay: Cell proliferation test with KS-133; type: cell-based; conditions: for Number of cells (mean value): 100 nM KS-133, 100 nM VIP, 2% FBS
Description: This effect was confirmed. The cell proliferation test was performed according to NON-PATENT DOCUMENT 3. MCF-7 cells overexpressing VIPR2-EGFP were seeded in a 35 mm culture dish at a density of 1×10^5 cells/dish for 6 hours, and the culture medium was replaced with a fresh medium containing 2% FBS, 100 nM VIP, and 0 nM or 100 nM KS-133 (day 0). Cells were observed under a BZ-X800 fluorescence microscope (Keyence, Kyoto, Japan) and the number of cells was counted every 24 hours for up to 4 days by trypan blue dye staining using a hemacytometer (timecourse experiment).

[5] = test system: phosphorylation of AKT in MCF-7 cells; assay: Phosphorylation of AKT on VIP stimulation (Western blotting); type: cell-based; conditions: MCF-7 cells starved 3 hours, 0 nM to 1000 nM VIP for 10 minutes
Description: as §2
To investigate whether VIP is involved in cell movement via the PI3K/PI(3,4,5)P3 pathway, phosphorylation of AKT, a downstream signal of the PI3K/PI(3,4,5)P3 pathway in cancer cells, was assessed by Western blotting. […] All experiments were independently performed at least three times, and similar data were obtained.

[6] = test system: MDA-MB-231 cells stably expressing EGFP or VIPR2-EGFP; assay: WAVE2-rich lamellipodia area after VIP stimulation; type: cell-based; conditions: 100 nM VIP; 30 minutes
Description: MDA-MB-231 cells (2×10^5 cells) stably expressing EGFP or VIPR2-EGFP were seeded on collagen-coated cover glass and incubated under conditions of 37° C. and 5% CO2. After 24 hours, the cells were washed with serum-free medium, and fresh serum-free medium was added to incubate the cells (under conditions of 37° C. and 5% CO2). After 3 hours, the medium was replaced with serum-free medium containing 100 nM VIP, and incubation for 30 minutes was performed. The cells were fixed with 4% paraformaldehyde, and immunostained using an anti-WAVE2 antibody. The surface area of a WAVE2-rich region immediately below the cell membrane was measured from a fluorescently-stained image of the same and graphed.
Data are shown as mean±SD. **: p<0.01, ***: p<0.001, between indicated groups (Kruskal-Wallis test and Dunn's multiple comparison test). “n.s.” indicates not statistically significant. […] The MDA-MB-231 cells stably expressing VIPR2-EGFP had more pronounced area expansion of lamellipodia compared to the control MDA-MB-231 cells expressing EGFP.

[7] = test system: MDA-MB-231 cells stably expressing EGFP or VIPR2-EGFP; assay: Transwell chamber assay of VIP-induced movement; type: cell-based; conditions: 200 nM VIP; 30 hours
Description: as §1
Cells were suspended in serum-free media (1×10^4 cells/[…]). A serum-free medium 6 containing 200 nM VIP was added to each well in an amount of 600 μL, and an insert 3 having 3 μm pores 5 was immersed in the well. […] After 30 hours, cells were fixed, cells on the surface of the insert 3 were removed, and then fluorescence of EGFP of cells 2 that had moved to the rear surface in response to VIP was detected with a fluorescence microscope. The number of the cells that had moved to the rear surface of the insert was graphed based on the fluorescence image. […] VIP (200 nM) was added to the well, the cells were added to the insert and incubated at 37° C. for 30 hours, and cells that had moved to the rear side of the insert were quantified and shown graphically.

Substance | VIP-induced cell migration ([1]; 200 nM VIP, KS-133 0 nM to 1000 nM, 48 hours) | Mean cell count (migrated cells) ([1]; KS-133 30 nM, 200 nM VIP, 48 hours) | Mean cell count (migrated cells) ([1]; KS-133 100 nM, 200 nM VIP, 48 hours) | Mean cell count (migrated cells) ([1]; KS-133 300 nM, 200 nM VIP, 48 hours) | Mean cell count (migrated cells) ([1]; KS-133 1000 nM, 200 nM VIP, 48 hours) | KS-133 concentration showing a significant difference in migration compared to the absence of KS-133 ([1]; Kruskal-Wallis test and Dunn's multiple comparison test) | cognitive decline [2] | expression of AKT [3] | phosphorylation of AKT induced by VIP ([3]; presence vs absence of KS-133) | Number of cells (mean value) ([4]; Day 0) | Number of cells (mean value) ([4]; Day 1) | Number of cells (mean value) ([4]; Day 2) | Number of cells (mean value) ([4]; Day 3) | Number of cells (mean value) ([4]; Day 4) | cell proliferation ([4]; MCF-7 cells overexpressing VIPR2, addition of KS-133) | phosphorylation of AKT [5] | WAVE2-rich area of lamellipodia [6] | number of cells that had moved to the back side of the insert [7]
Ac-c[Cys^1-Pro^2-Pro^3-Tyr^4-Leu^5-Pro^6-c(Lys^7-Tyr^8-Leu^9-Cys^10]-Asp^11)-Leu^12-Ile^13-NH2 (Ac-CPPYLPKYLCDLI-NH2; disulfide 1-10; lactam 7-11; SMILES CC[C@H](C)[C@H](NC(=O)[C@H](CC(C)C)NC(=O)[C@@H]1CC(=O)NCCCC[C@@H]2NC(=O)[C@@H]3CCCN3C(=O)[C@H](CC(C)C)NC(=O)[C@H](Cc3ccc(O)cc3)NC(=O)[C@@H]3CCCN3C(=O)[C@@H]3CCCN3C(=O)[C@@H](NC(C)=O)CSSC[C@H](NC(=O)[C@H](CC(C)C)NC(=O)[C@H](Cc3ccc(O)cc3)NC2=O)C(=O)N1)C(N)=O) [KS-133] | suppressed | 4.35 Cells/mm^2 | 2.08 Cells/mm^2 | 1.39 Cells/mm^2 | 0.78 Cells/mm^2 | ≥ 100 nM | suppress cognitive decline | did not affect the expression of AKT | strongly suppressed phosphorylation of AKT induced by VIP in an addition concentration-dependent manner | 1.0 × 10^5 | 0.85 × 10^5 | 0.65 × 10^5 | 0.45 × 10^5 | 0.2 × 10^5 | significantly suppressed from Day 2 of culture or later | – | – | –
Vasoactive intestinal peptide [VIP] | – | – | – | – | – | – | – | – | – | – | – | – | – | – | – | phosphorylated in a VIP addition concentration-dependent manner | expanded the WAVE2-rich area of lamellipodia | increased

From US20250186540A1, “VIPR2 ANTAGONIST PEPTIDE FOR SUPPRESSING CANCER METASTASIS” (ICHIMARU PHARCOS CO., LTD., priority 2022, published 2025)
